Measured values as given in patent publication US8809314B1, “Cephalosporin compound” (Cubist Pharmaceuticals, Inc., priority 2012, dated 2014).
Converted amounts (≈) assume the structure as drawn. Counter-ions that a name gives are not always drawn.

How the values were obtained:
Pa44 (WT Pa) = test: MIC, broth microdilution (Example 3), Table 1; assay type: cell-based; details: Pseudomonas aeruginosa, CAMHB
Procedure: (§1) To prepare for MIC testing, individual colonies were isolated by streaking frozen glycerol material containing Staphylococcus or Pseudomonas spp. onto rich, non-selective, tryptic soy agar containing 5% sheep's blood (TSAB), and incubated at 37° C. for 18-24 hrs.
(§2) On the day of testing, primary cultures were started by scraping off 5-10 colonies from the TSAB plates. The material was suspended in ˜5 mL of cation adjusted Mueller Hinton Broth (CAMHB) in 14 mL culture tubes and incubated at 37° C. with aeration (200 rpm) for ˜2 hrs until the OD600 was ≧0.1.
(§3) Inoculum cultures were prepared by standardizing the primary cultures to OD600=0.1 and then adding 20 μL of the adjusted primary culture per 1 mL CAMHB for Pseudomonas and CAMHB plus 4% NaCl for MRSA so that the final inoculum density was ˜10^5 colony forming units per milliliter. Diluted inoculum cultures were used to inoculate 50 μL per well in 96 well broth microdilution assay plates. 50 μL of CAMHB that contained compound concentrations ranging from 64-0.06 μg/mL in two-fold dilutions was also added to the broth microdilution assay plates for a final volume 100 μL per well, therefore final culture OD600 was approximately 0.001 and the final NaCl concentration for the MRSA strain was 2%.
(§4) Plates were incubated for 18-20 hours at 37° C. with aeration (200 rpm). Following incubation, growth was confirmed visually placing plates over a viewing apparatus (stand with a mirror underneath) and then OD600 was measured using a SpectraMax 340PC384 plate reader (Molecular Devices, Sunnyvale, Calif.). Growth was defined as turbidity that could be detected with the naked eye or achieving minimum OD600 of 0.1. MIC values were defined as the lowest concentration producing no visible turbidity.

Sa399 (MRSA) = test: MIC, broth microdilution (Example 3), Table 1; assay type: cell-based; details: Staphylococcus aureus, CAMHB, final 2% NaCl
Procedure: as §1, §2, §3, §4

[1] = tested on: Pseudomonas aeruginosa (n = 100); test: MIC90, expanded MIC panel (Table 4); assay type: cell-based; details: 100 Pa strains
Procedure: (§5) II. […] MIC90 values were defined as the concentration required to inhibit growth of 90% of the strains tested. • C. SAR was performed using the following isolates: Sa399 (ATCC43300, MRSA), Sa1721 (NARSA NRS384, MRSA USA 300), Pa44 (ATCC27853), and 4 clinical isolates (Pa2241, Pa2086 (mucoid strain), Pa2694 and Pa2698). • D. The in vitro antibacterial activity of the compound of formula (I) was further evaluated in an expanded MRSA and Pa MIC panel (see Table 4 and FIG. 6).

MRSA #712 [2] = test: Thigh infection in neutropenic mice; assay type: in vivo, Staphylococcus aureus
Procedure: (§6) In vivo efficacy of (I) was evaluated against strains of MRSA, and ceftazidime-resistant Pa and Klebsiella pneumonia (Kpn) in mouse septicemia, thigh and lung infections. Septicemia: CD-1 mice received lethal bacterial inocula IP, followed by 2 doses of antibiotics SC at 1 and 6 hrs post-inoculation. Dose calculated to protect 50% of the mice (PD50) was derived based on probit analysis of percentage survival. Thigh and lung infections: Thighs or lungs of neutropenic mice were inoculated with MRSA or Pa. Two treatment doses were given SC at 1 and 6 hrs post-inoculation. Tissues were harvested at ˜24 hrs post-inoculation and bacterial burdens quantified.
II. Methods • A. Animals: Six week-old, specific pathogen free, female CD-1 mice purchased from Charles River Laboratories (Wilmington, Mass.) were used for all studies after acclimation in Cubist animal facility. All animal procedures were approved by the Cubist Institutional Animal Care and Use Committee. • B. Bacteria and In Vitro Susceptibility Testing: MRSA #712, Pseudomonas aeruginosa #2245 and #2545, and Klebsiella pneumoniae #573 are clinical isolates; Pseudomonas aeruginosa #44 is an ATCC strain (ATCC#27853). MIC was determined in MHB by standard CLSI microdilution. […] The survival of animals was recorded daily for 7 days. The antibiotic dose calculated to protect 50% of the mice (PD50) was derived based on probit analysis of percentage survival. • E. Mouse Thigh and Lung Infections: Mice were rendered neutropenic by two IP injections of cyclophosphamide 4 days (150 mg/kg) and 1 day (100 mg/kg) before bacterial inoculation. […] Tissue bacterial burdens were quantified by serial dilution and spiral plating of homogenates.

MRSA (n = 21) = test: MIC90, expanded MIC panel (Table 4); assay type: cell-based; details: Staphylococcus aureus, MRSA, read-out: MIC90 MRSA (n = 21)
Procedure: as §5

MRSA #712 [3] = test: MIC in MHB by standard CLSI microdilution (Example 4); assay type: cell-based; details: Staphylococcus aureus, MRSA
Text: II. Methods • A. Animals: Six week-old, specific pathogen free, female CD-1 mice purchased from Charles River Laboratories (Wilmington, Mass.) were used for all studies after acclimation in Cubist animal facility. All animal procedures were approved by the Cubist Institutional Animal Care and Use Committee. • B. Bacteria and In Vitro Susceptibility Testing: MRSA #712, Pseudomonas aeruginosa #2245 and #2545, and Klebsiella pneumoniae #573 are clinical isolates; Pseudomonas aeruginosa #44 is an ATCC strain (ATCC#27853). MIC was determined in MHB by standard CLSI microdilution. Comparator Antibiotics Used in Animal Studies: Vancomycin hydrochloride USP was purchased from Hospira (Lake Forest, Ill.); ceftazidime hydrate from Sigma; Primaxin (imipenem and cilastatin) from Merck; ceftaroline was synthesized at a CRO. • D. Mouse Septicemia: Mice received lethal inocula of bacteria in 6% hog gastric mucin intraperitoneally (IP), followed by two treatment doses of antibiotics via subcutaneous (SC) administration at 1 and 6 hrs post-inoculation. The survival of animals was recorded daily for 7 days. The antibiotic dose calculated to protect 50% of the mice (PD50) was derived based on probit analysis of percentage survival. • E. Mouse Thigh and Lung Infections: Mice were rendered neutropenic by two IP injections of cyclophosphamide 4 days (150 mg/kg) and 1 day (100 mg/kg) before bacterial inoculation. Thigh or lung infection was induced by an intramuscular injection of 0.2 mL or intranasal inoculation of 0.1 mL inoculum preparation from an overnight bacterial culture into left thigh or nares. Tissues from one group of mice receiving no treatment (No Rx) were harvested at 1 hr for determination of baseline of bacterial burden. The remaining mice received two treatment doses of vehicles or antibiotics given SC at 1 and 6 hrs post-inoculation. Tissues from the treated mice were harvested at ˜24 hrs post-inoculation. Tissue bacterial burdens were quantified by serial dilution and spiral plating of homogenates.

MRSA #712 [4] = test: Mouse septicemia (systemic infection), PD50; assay type: in vivo, Staphylococcus aureus; details: CD-1 mice, IP inoculum, 2 SC doses at 1 and 6 hrs, 7 day survival
Procedure: as §6
II. […] MIC was determined in MHB by standard CLSI microdilution. […] The survival of animals was recorded daily for 7 days. The antibiotic dose calculated to protect 50% of the mice (PD50) was derived based on probit analysis of percentage survival. • E. Mouse Thigh and Lung Infections: Mice were rendered neutropenic by two IP injections of cyclophosphamide 4 days (150 mg/kg) and 1 day (100 mg/kg) before bacterial inoculation. […] Tissue bacterial burdens were quantified by serial dilution and spiral plating of homogenates.
III. […] The dose that protected 50% of the mice (PD50) was calculated by probit analysis based on percentage of mice surviving for 7 days post-inoculation. • C. […]

Compound | MIC (Pa44 (WT Pa)) | MIC (Sa399 (MRSA)) | other results
CO/N=C(\C(=O)N[C@@H]1C(=O)N2C(C(=O)[O-])=C(C[n+]3ccc(CNC(=O)c4ccccc4)cc3)CS[C@H]12)c1nc(N)sc1Cl [Compound 1-2] | > 16 µg/mL | ≤ 4 µg/mL | 
CCCc1ccc(C(=O)NCc2cc[n+](CC3=C(C(=O)[O-])N4C(=O)[C@@H](NC(=O)/C(=N\OC)c5nc(N)sc5Cl)[C@H]4SC3)cc2)cc1 [Compound 1-3] | > 16 µg/mL | 8 to 16 µg/mL (≈ 11.7 to 23.4 µM) | 
CO/N=C(\C(=O)N[C@@H]1C(=O)N2C(C(=O)[O-])=C(C[n+]3ccc(CNC(=O)c4cccc(CCNC(=O)C(F)(F)F)c4)cc3)CS[C@H]12)c1nc(N)sc1Cl [Compound 1-4] | > 16 µg/mL | 8 to 16 µg/mL (≈ 10.2 to 20.5 µM) | 
C[C@@H](O)[C@H]1C(=O)N2C(C(=O)O)=C(S[C@@H]3CN[C@H](C(=O)N(C)C)C3)[C@H](C)[C@H]12 [Meropenem] |  |  | MIC90 [1]: 4 µg/mL (≈ 10.4 µM)
CN[C@H](CC(C)C)C(=O)N[C@H]1C(=O)N[C@@H](CC(N)=O)C(=O)N[C@H]2C(=O)N[C@H]3C(=O)N[C@H](C(=O)N[C@H](C(=O)O)c4cc(O)cc(O)c4-c4cc3ccc4O)[C@H](O)c3ccc(c(Cl)c3)Oc3cc2cc(c3O[C@@H]2O[C@H](CO)[C@@H](O)[C@H](O)[C@H]2O[C@H]2C[C@](C)(N)[C@H](O)[C@H](C)O2)Oc2ccc(cc2Cl)[C@H]1O [Vancomycin, Vancomycin hydrochloride] |  |  | Thigh (T) ED−2log (MRSA #712 [2]; MRSA #712 thigh infection, neutropenic mice, 2 SC doses at 1 and 6 hrs, 24 h, vs vehicle): >110 (T) mg/kg; reduction in bacterial CFU (MRSA #712 [2]; MRSA #712 thigh, 110 mg/kg SC): ~1.5 log; MIC90 (MRSA (n = 21)): 1 µg/mL; MIC (MRSA #712 [3]): 1 µg/mL; Septicemia PD50 (± SE) (MRSA #712 [4]): 2.0 ± 1.3 mg/kg
